Reference: patent publication US8859615B2, “Compounds, compositions and methods for reducing toxicity and treating or preventing diseases” (priority 2008, dated 2014)
Read-outs that look alike come from different tables or passages of the source.

What was measured:
[1] = tested on: human lymphoblastic leukemic T-cell growth; test: Cytotoxic activity relative to stability during storage at −20° C. in DMSO (Table 10); assay type: cell-based; details: Homo sapiens, CCRF-CEM, 72 h, XTT, 72 hr
[2] = tested on: quinone reductase (NQO1) in Hepa 1c1c7 murine hepatoma cells; test: Phase 2 enzyme inducer activity (Prochaska microtiter plate bioassay)
Method: Pure panaxytriol was dissolved in dimethyl sulfoxide. Phase 2 enzyme inducer activity was measured using a rapid assay of activity of representative phase 2 enzyme in a cell line. This assay was originally developed by Prochaska and colleagues as in Prochaska H J, Santamaria A B, Talalay P. “Rapid detection of inducers of enzymes that protect against carcinogens.” Proc Natl Acad Sci US A 1992; 89:2394-2398, and has been further refined as in Fahey J W, Dinkova-Kostova A T, Stephenson K K, Talalay P. “The “Prochaska” microtiter plate bioassay for inducers of NQO1.” Methods Enzymol. 2004; 382:243-258, each of which are incorporated by reference in its entirety. Briefly, Hepa 1c1c7 murine hepatoma cells were grown in 96-well microtiter plates. Serial dilutions of the extracts or compounds which were assayed were added into the wells. After 48 hours, the cells were lysed and the activity of quinone reductase (NQO1) was assayed by the addition of a reaction mixture containing an NADPH-generating system, menadione and MTT. NQO1 catalyzes the reduction of menadione to menadiol by NADPH, and MTT is reduced nonenzymatically by menadiol, resulting in the formation of a blue color that can then be quantitated as in Prochaska H J, Santamaria A B. “Direct measurement of NAD(P)H:quinone reductase from cells cultured in microtiter wells: a screening assay for anticarcinogenic enzyme inducers.” Anal. Biochem. 1988; 169:328-336, which is incorporated by reference in its entirety. […] NQO1 activity and protein content of the lysate were measured in duplicate plates with an optical microtiter plate absorbance reader. […] One unit of inducer activity is defined as the amount that, when added to a single microtiter well, doubles the NQO1 specific activity. Sulforaphane and β-naphthoflavone were used as positive controls in each bioassay. […] NQO1 inducer activity was assayed as described herein, and is reported here as treated/control at different concentrations of ginseng extract or component per well. […] (+) Panaxytriol (molecular weight […]), (Δ) Protopanaxatriol (molecular weight 461), (◯) Korean red SUN GINSENG® extract. The reductase assay can also be performed as disclosed in PCT Publication No. WO 06/023821, the entire contents of which are hereby incorporated in the instant application.

With C=C[C@@H](O)C#CC#CC[C@@H](O)[C@H](O)CCCCCCC [panaxytriol] the IC50 ([1]; read-out: IC50 in μM CCRF-CEM, Table 10, Aug. 22, 2003 (Stored), same solution kept at −20° C. in DMSO) was 11 µM, the IC50 ([1]; read-out: IC50 in μM CCRF-CEM, Table 10, Jul. 25, 2003 (Fresh)) was 6.34 µM and the IC50 ([1]; read-out: IC50 in μM CCRF-CEM/VBL, Table 10, Aug. 22, 2003 (Stored), same solution kept at −20° C. in DMSO) was 19.4 µM. The IC50 ([1]; read-out: IC50 in μM CCRF-CEM/VBL, Table 10, Jul. 25, 2003 (Fresh)) was 4.71 ± 0.73 µM, the “potency as an inducer relative to protopanxadiol or protopanaxatriol” value [2] was “over 10 fold” and the “significant cytotoxicity observed above” value ([2]; Hepa 1c1c7 cells) was “above 0.5 μg/well”. For the same compound, the inducer potency ([2]; NQO1) was 5,760,000 U/g and the “concentration of doubling (CD), average” value ([2]; NQO1, 48 hours) was 3.85 µM.
